These results are taken from ChEMBL document CHEMBL5729210, “Benzodiazepine derivatives as RSV inhibitors” (2022).

SMILES strings stand for the structures. Several values for one entry are separate records, joined by “and”; a condition that tells them apart may be missing. Equal entries are not always repeated.

This assay in a line: RSV-A Assay: The description is Japanese.
As for `O=C1Nc2ccccc2C(c2ccccc2)=NC1Nc1nc(-c2ccccc2)cs1` (centres undefined), the EC50 (usually the concentration needed to bring the measured effect to its halfway point) is over 800 nM.
With `N#Cc1cnc(N2CCOCC2)c(-c2nnc(N[C@H]3N=C(c4ccccc4)c4ccccc4NC3=O)o2)c1`, the EC50 is under 400 nM.
Then `O=C1Nc2ccccc2C(c2ccccc2)=N[C@@H]1Nc1nnc(-c2cn(C3CCC3)nc2N2CCOCC2)o1`, with under 400 nM.
Next, `O=C1Nc2ccccc2C(c2ccccc2)=NC1Nc1cc(N2CCOCC2)ncn1` (centres undefined): over 800 nM; `O=C1Nc2ccccc2C(c2ccccc2)=NC1Nc1cnc(-c2ccc(F)cc2)cn1` (centres undefined): over 800 nM; `O=C1Nc2ccccc2C(c2ccccc2)=N[C@@H]1Nc1nnc(-c2ccc(F)cc2)o1`: “in the range around 600 nM”.
Turning to `O=C1Nc2ccccc2C(c2ccccc2)=NC1Nc1nnc(-c2cc(F)ccc2N2CCOCC2)o1` (centres undefined), the EC50 result was “in the range around 600 nM”.
Next, `CN1C(=O)C(Nc2nnc(-c3ccc(F)cc3)o2)N=C(c2ccccc2)c2ccccc21` (centres undefined): over 800 nM.
The compound `C[C@@H]1CN(c2cc(C(F)(F)F)cnc2-c2nnc(N[C@H]3N=C(c4ccccc4)c4ccccc4NC3=O)o2)CCO1` returned a concentration giving a half-maximal response (EC50) of under 400 nM.
Then `CCOC(=O)c1ncc(C(F)(F)F)cc1-c1ccncc1`, with over 800 nM.
Then `O=C1Nc2ccccc2C(c2ccccc2)=NC1Nc1nnc(CCC(F)(F)F)o1` (centres undefined), with over 800 nM.
The compound `O=C1Nc2ccccc2C(c2ccccc2)=NC1Nc1nc2ccccc2o1` (centres undefined) registered an EC50 of over 800 nM.
Next, `O=C1Nc2ccccc2C(c2ccccc2)=NC1Nc1nnc(-c2ccc(N3CCOCC3)c(F)c2)o1` (centres undefined): over 800 nM.
Next, `Cc1ccc(-c2nnc(N[C@H]3N=C(c4ccccc4)c4ccccc4NC3=O)o2)c(N2CCOC[C@H]2C)n1`: under 400 nM; `O=C1Nc2ccccc2C(c2ccccc2)=NC1Nc1nnc(-c2ccccc2C2CCOCC2)o1` (centres undefined): over 800 nM; `O=C1Nc2ccccc2C(c2ccccc2)=NC1Nc1nc2ccccc2s1` (centres undefined): over 800 nM.
Then `O=C1Nc2ccccc2C(c2ccccc2)=N[C@@H]1Nc1nnc(-c2ncc(F)cc2N2CC3CCC(C2)O3)o1`, with under 400 nM.
On to `COCCNc1sc(C(F)(F)F)nc1-c1nnc(N[C@H]2N=C(c3ccccc3)c3ccccc3NC2=O)o1`, for which the concentration for a half-maximal effect (EC50) is under 400 nM.
Then `O=C1Nc2c(F)cccc2C(c2ccccc2)=N[C@H]1Nc1nnc(-c2ccccc2N2CCOCC2)o1`, with over 800 nM; and `O=C1Nc2ccccc2C(c2ccccc2)=NC1Nc1nnc(-c2c(F)cc(N3CCOCC3)cc2F)o1` (centres undefined), with over 800 nM.
Next, `O=C1Nc2ccccc2C(c2ccccc2)=N[C@@H]1Nc1nnc(-c2ncc3ccccc3c2N2CCOCC2)o1`: over 800 nM; `O=C1Nc2ccccc2C(c2ccccc2)=NC1Nc1nnc(-c2cncnc2)o1` (centres undefined): over 800 nM.
Next, `COC(=O)c1sc(Br)cc1N1CCOCC1`: under 400 nM; `Cc1cc(-c2nnc(NC3N=C(c4ccccc4)c4ccccc4NC3=O)o2)ccc1-n1cncn1` (centres undefined): “in the range around 600 nM”; `O=C1Nc2ccccc2C(c2ccccc2)=N[C@@H]1Nc1nnc(-c2ncc(C(F)(F)F)cc2N2CCOC(C(F)(F)F)C2)o1` (some centres undefined): under 400 nM.
`COc1ccc(-c2nnc(NC3N=C(c4ccccc4)c4ccccc4NC3=O)o2)cc1` (centres undefined) had a concentration giving a half-maximal response (EC50) of over 800 nM.
`O=C1Nc2ccccc2C(c2ccccc2)=NC1Nc1nnc(-c2cnccc2N2CCCCC2)o1` (centres undefined) yielded a concentration giving a half-maximal response (EC50) of over 800 nM.
Next, `O=C1Nc2ccccc2C(c2ccccc2)=N[C@@H]1Nc1nnc(-c2nnsc2N2CCOCC2)o1`: under 400 nM; `O=C1Nc2ccccc2C(c2ccccc2)=NC1Nc1nnc(-c2cccnc2N2C[C@H]3C[C@@H]2CO3)o1` (some centres undefined): over 800 nM.
Then `O=C1Nc2ccccc2C(c2ccccc2)=N[C@@H]1Nc1nnc(-c2oc3cccc(F)c3c2N2CCOCC2)o1`, with under 400 nM; and `O=C1Nc2c(Cl)cccc2C(c2ccccc2)=NC1Nc1nnc(-c2ccccc2N2CCOCC2)o1` (centres undefined), with over 800 nM; and `CC(C)c1nnc(NC2N=C(c3ccccc3)c3ccccc3NC2=O)o1` (centres undefined), with over 800 nM.
Then `C[C@H]1CN(c2ncccc2-c2nnc(NC3N=C(c4ccccc4)c4ccccc4NC3=O)o2)CCO1` (some centres undefined), with “in the range around 600 nM”.
`COc1ccc(-c2nnc(N[C@H]3N=C(c4ccccc4)c4ccccc4NC3=O)o2)c(N2CCOCC2)n1` came in with an EC50 of under 400 nM.
`N#Cc1cc(-c2nnc(NC3N=C(c4ccccc4)c4ccccc4NC3=O)o2)ccn1` (centres undefined) yielded a half-maximal effective concentration (EC50) of over 800 nM.
Then `COC(=O)c1cc(Br)c(C2CC2)nc1Cl`, with under 400 nM.
Then `O=C1Nc2ccccc2C(c2ccccc2)=N[C@@H]1Nc1nnc(-c2ncc(Br)cc2N2CCOCC2)o1`, with under 400 nM; and `COC(=O)c1ncc(C#N)cc1N1CCOCC1`, with under 400 nM; and `O=C1Nc2ccccc2C(c2ccccc2)=NC1Nc1ccc(-c2ccccc2N2CCOCC2)nn1` (centres undefined), with over 800 nM.
Then `O=C1Nc2ccccc2C(c2ccccc2)=NC1Nc1nnc(-c2cccnc2N2C[C@@H]3C[C@H]2CO3)o1` (some centres undefined), with over 800 nM.
`COC(C)(C)CNc1cc(C(F)(F)F)cnc1-c1nnc(N[C@H]2N=C(c3ccccc3)c3ccccc3NC2=O)o1` had an EC50 of over 800 nM.
Regarding `N#Cc1ccc(-c2nnc(NC3N=C(c4ccccc4)c4ccccc4NC3=O)s2)cc1` (centres undefined), the half-maximal effective concentration (EC50) entry is “in the range around 600 nM”.
Next, `CC(C)Oc1cccc(-c2nnc(NC3N=C(c4ccccc4)c4ccccc4NC3=O)o2)c1` (centres undefined): “in the range around 600 nM”; `O=C1Nc2ccccc2C(c2ccccc2)=NC1Nc1nnc(-c2ccc(-n3cncn3)cc2)o1` (centres undefined): “in the range around 600 nM”.
Next, `CN1CCC(c2nnc(NC3N=C(c4ccccc4)c4ccccc4NC3=O)o2)CC1` (centres undefined): over 800 nM; `O=C1Nc2ccccc2C(c2ccccc2)=N[C@H]1Nc1nnc(-c2ccc(F)cc2)o1`: over 800 nM; `COCCN(C)c1ccc(-c2nnc(NC3N=C(c4ccccc4)c4ccccc4NC3=O)o2)cc1` (centres undefined): over 800 nM.
In turn, `C[C@@H]1CN(c2ccc(-c3nnc(N[C@H]4N=C(c5ccccc5)c5ccccc5NC4=O)o3)c(Cl)c2)C[C@H](C)O1` yielded an EC50 of over 800 nM.
Turning to `COc1cc(-c2nnc(NC3N=C(c4ccccc4)c4ccccc4NC3=O)o2)ccc1F` (centres undefined), the 50% effective concentration (EC50) was under 400 nM.
Next, `COc1ccc(-c2nnc(NC3N=C(c4ccccc4)c4ccccc4NC3=O)o2)nc1Cl` (centres undefined): over 800 nM; `CC1(c2nnc(NC3N=C(c4ccccc4)c4ccccc4NC3=O)o2)CCNC1` (centres undefined): over 800 nM; `O=C1Nc2ccccc2C(c2ccccc2)=NC1Nc1nnc(-c2ccccc2N2CCCOCC2)o1` (centres undefined): over 800 nM.
Then `O=C1Nc2ccccc2C(c2ccccc2)=NC1Nc1nnc(-c2ccc(-n3ccnc3)cc2)o1` (centres undefined), with under 400 nM; and `Cc1ccc(-c2nnc(NC3N=C(c4ccccc4)c4ccccc4NC3=O)o2)s1` (centres undefined), with over 800 nM.
Then `O=C1Nc2ccccc2C(c2ccccc2)=NC1Nc1nnc(-c2ccc(-n3ccnc3)nc2)o1` (centres undefined), with over 800 nM.
In turn, `COCCn1ccc2cccc(C(=O)OC)c21` returned a concentration giving a half-maximal response (EC50) of over 800 nM.
`COCCn1cc(-c2nnc(N[C@H]3N=C(c4ccccc4)c4ccccc4NC3=O)o2)c(N2CCOCC2)n1` displayed an EC50 of under 400 nM.
For `COc1ccn2ncc(-c3nnc(N[C@H]4N=C(c5ccccc5)c5ccccc5NC4=O)o3)c2c1`, the concentration giving a half-maximal response (EC50) was over 800 nM.
Then `O=C1Nc2ccccc2C(c2ccccc2)=N[C@@H]1Nc1nnc(-c2ncc(C(F)(F)F)cc2N2CCOCC2)o1` [ZELICAPAVIR], with < 400 nM (2×) and > 800 nM.
